Results reported in the NIST ThermoML archive (doi:10.1016/j.tca.2018.10.018).
± gives the expanded uncertainty stated by the source.

Legend:
[1] = Liquid; for viscosity: Capillary tube (Ostwald / Ubbelohde) method; for mass density: Siemens Coriolis flowmeter
[2] = xn = mol fraction of the nth substance listed; settings: Liquid, x2 = 0; for viscosity: Capillary tube (Ostwald / Ubbelohde) method; for mass density: Siemens Coriolis flowmeter

CCCCCCC [heptane]
[1]
Settings | mass density, 298.15 K [kg/m3] | mass density, 308.15 K [kg/m3] | mass density, 318.15 K [kg/m3] | viscosity, 298.15 K [mPa·s] | viscosity, 308.15 K [mPa·s] | viscosity, 318.15 K [mPa·s]
100 kPa | 680 ± 2 | 670 ± 2 | 662 ± 2 | 0.404 ± 0.013 | 0.367 ± 0.011 | 0.33 ± 0.01
3000 kPa | 683 ± 2 | 674 ± 2 | 666 ± 2 | 0.415 ± 0.013 | 0.371 ± 0.012 | 0.339 ± 0.011
6000 kPa | 686 ± 2 | 677 ± 2 | 669 ± 2 | 0.42 ± 0.013 | 0.385 ± 0.012 | 0.347 ± 0.011
9000 kPa | 689 ± 2 | 680 ± 2 | 672 ± 2 | 0.432 ± 0.013 | 0.396 ± 0.012 | 0.359 ± 0.011
12000 kPa | 691 ± 2 | 683 ± 2 | 675 ± 2 | 0.446 ± 0.014 | 0.404 ± 0.013 | 0.369 ± 0.012
15000 kPa | 694 ± 2 | 685 ± 2 | 678 ± 2 | 0.454 ± 0.014 | 0.411 ± 0.013 | 0.374 ± 0.012

CCCCCCC [heptane] + CCCCCCCCCC(=O)OC
[2]
Settings | mass density, 298.15 K [kg/m3] | mass density, 308.15 K [kg/m3] | mass density, 318.15 K [kg/m3] | viscosity, 298.15 K [mPa·s] | viscosity, 308.15 K [mPa·s] | viscosity, 318.15 K [mPa·s]
100 kPa | 680 ± 2 | 670 ± 2 | 662 ± 2 | 0.404 ± 0.013 | 0.367 ± 0.011 | 0.33 ± 0.01
3000 kPa | 683 ± 2 | 674 ± 2 | 666 ± 2 | 0.415 ± 0.013 | 0.371 ± 0.012 | 0.339 ± 0.011
6000 kPa | 686 ± 2 | 677 ± 2 | 669 ± 2 | 0.42 ± 0.013 | 0.385 ± 0.012 | 0.347 ± 0.011
9000 kPa | 689 ± 2 | 680 ± 2 | 672 ± 2 | 0.432 ± 0.013 | 0.396 ± 0.012 | 0.359 ± 0.011
12000 kPa | 691 ± 2 | 683 ± 2 | 675 ± 2 | 0.446 ± 0.014 | 0.404 ± 0.013 | 0.369 ± 0.012
15000 kPa | 694 ± 2 | 685 ± 2 | 678 ± 2 | 0.454 ± 0.014 | 0.411 ± 0.013 | 0.374 ± 0.012

CCCCCCCCCC(=O)OC [methyl decanoate]
[1]
Settings | mass density, 298.15 K [kg/m3] | mass density, 308.15 K [kg/m3] | mass density, 318.15 K [kg/m3] | viscosity, 298.15 K [mPa·s] | viscosity, 308.15 K [mPa·s] | viscosity, 318.15 K [mPa·s]
100 kPa | 868 ± 2 | 860 ± 2 | 853 ± 2 | 1.934 ± 0.06 | 1.628 ± 0.05 | 1.38 ± 0.043
3000 kPa | 870 ± 2 | – | 854 ± 2 | 1.992 ± 0.061 | – | 1.417 ± 0.044
3010 kPa | – | 862 ± 2 | – | – | 1.675 ± 0.052 | –
6000 kPa | 872 ± 2 | 864 ± 2 | 856 ± 2 | 2.058 ± 0.064 | 1.727 ± 0.053 | 1.462 ± 0.045
9000 kPa | 874 ± 2 | 866 ± 2 | 859 ± 2 | 2.123 ± 0.066 | 1.779 ± 0.055 | 1.491 ± 0.046
12000 kPa | 877 ± 2 | 869 ± 2 | 861 ± 2 | 2.209 ± 0.068 | 1.835 ± 0.057 | 1.534 ± 0.047
15000 kPa | 878 ± 2 | 871 ± 2 | 863 ± 2 | 2.272 ± 0.07 | 1.888 ± 0.058 | 1.578 ± 0.049
